This note sets out measurements from PMC9822021, “Biological Activity of Amidino-Substituted Imidazo [4,5-b]pyridines” (Molecules, 2022).

In one series the test system is HSV-1 KOS. The experiment in a line: Antiviral CPE reduction assay. Format: cell-based, herpes simplex virus-1. Particulars: Human alphaherpesvirus 1.
The test system of series [1] is NCI-H460 lung carcinoma cells. The experiment in a line: In vitro antiproliferative activity, MTS proliferation assay. Format: cell-based. To be noted: Homo sapiens, 72 h. (In general: Tetrazolium assays rely on reduction of a dye to a coloured formazan, in cell work by metabolically active cells.)
Series [2] deals with HCT-116 colorectal carcinoma cells. Described as above. The format is cell-based. Particulars: Homo sapiens, 72 h.
The test system of series [3] is K-562 chronic myeloid leukemia cells. The description is as above. Particulars: Homo sapiens, K562, 72 h. The format is cell-based.
The subject of series [4] is LN-229 glioblastoma cells. Described as above. Format: cell-based. Particulars: Homo sapiens, 72 h.
In another series the test system is Sindbis. As to the kind of experiment: Antiviral CPE reduction assay. Format: cell-based. To be noted: Sindbis virus, Huh-7, Huh7 cells.
Series [5] in a line: in vitro. Particulars: human.
Another series relates to Zika mr766. The experiment in a line: Antiviral CPE reduction assay. The format is cell-based. To be noted: Zika virus, Huh-7, Huh7 cells.
The test system of a further series is E. coli Efflux Del. The experiment in a line: microbe, parasite or virus in culture. Format: cell-based. To be noted: Escherichia coli, read-out: MIC E. coli Efflux Del. The procedure, abridged:
(§1)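 CLSI broth microdilution in Ca-adjusted MH media; inoculum from direct colony suspension at 0.5 McFarland, further diluted 100×.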

Series [6] has as its system Influenza B (B/Ned/537/05). The experiment in a line: Antiviral CPE reduction assay. The format is cell-based. Particulars: Influenza B virus, MDCK cells.
The test system of series [7] is SW620, HeLa and PC3 cancer cell lines. The experiment in a line: In vitro antiproliferative activity, all three selected cell lines (MTT). The format is cell-based. Particulars: Homo sapiens, range over three cell lines, 72 h. An excerpt:
(§2) Human cancer cell lines used in this manuscript, namely Capan-1, HCT-116, NCI-H460, LN-229, HL-60, K-562, Z-138, SW620, PC3 and HeLa, were acquired from the American Type Culture Collection (ATCC, Manassas, VA, USA), while the DND-41 cell line was purchased from the Deutsche Sammlung von Mikroorganismen und Zellkulturen (DSMZ Leibniz-Institut, Germany). Culture media were purchased from Gibco Life Technologies, USA, and supplemented with 10% fetal bovine serum (HyClone, GE Healthcare Life Sciences, Chicago, IL, USA), except for the media for SW620, PC3 and HeLa cells, which were purchased from Sigma.
(§3) Adherent cell lines LN-229, HCT-116, NCI-H460 and Capan-1 cells were seeded at a density between 500 and 1500 cells per well in 384-well tissue culture plates (Greiner). […]. Cells were incubated for 72 h with compounds and were then analyzed using the CellTiter 96® AQueous One Solution Cell Proliferation Assay (MTS) reagent (Promega) according to the manufacturer’s instructions. Absorbance of the samples was measured at 490 nm using a SpectraMax Plus 384 (Molecular Devices), and OD values were used to calculate the 50% inhibitory concentration (IC50). Compounds were tested in two independent experiments. […] After 72 h of incubation, the cell growth rate was evaluated using the MTT assay as described previously. […]

Another series deals with RSV A Long. The experiment in a line: Antiviral CPE reduction assay. The format is cell-based, respiratory syncytial virus A. Particulars: human respiratory syncytial virus; CPE reduction, HEL 299 cells.
Series [8] in a line: in vitro. Particulars: dog.
Series [9] deals with Z-138 non-Hodgkin lymphoma cells. The experiment in a line: In vitro antiproliferative activity, MTS proliferation assay. Format: cell-based, human. Summed up:
(§4)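 IC50 values derive from absorbance: 570 nm after MTT for SW620, PC3 and HeLa, 490 nm after MTS for Z-138, both following 72 h compound exposure. MTT lines were seeded at 1 × 10^4 to 3 × 10^4 cells/mL and dosed from 10^−8 to 10^−4 M.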

The nature of series [10]: in vitro. Particulars: human. The source holds these as a separate data set.
The next series concerns HCoV OC43. The experiment in a line: Antiviral CPE reduction assay. Format: cell-based, human coronavirus OC43. Particulars: Betacoronavirus 1, OC43, HEL 299 cells.
The subject of another series is S. Pneumoniae ATCC 49619. As to the kind of experiment: Antibacterial activity in vitro, broth microdilution. The format is cell-based. To be noted: Streptococcus pneumoniae, ATCC49619; broth microdilution (CLSI), 16–24 h at 37 °C. The procedure, abridged:
as §1
For orientation: In broth dilution the organism is exposed to a series of concentrations in liquid medium.

Another series concerns E. coli ATCC 25922. The series is described as above. Format: cell-based. Particulars: Escherichia coli, ATCC25922; broth microdilution (CLSI), 16–24 h at 37 °C. Summed up:
as §1

The subject of a further series is S. aureus ATCC 29213. Described as above. To be noted: Staphylococcus aureus, ATCC29213; broth microdilution (CLSI), 16–24 h at 37 °C. Format: cell-based. Summed up:
as §1

Series [11] concerns Influenza H3N2 (A/HK/7/87). The experiment in a line: Antiviral CPE reduction assay. Format: cell-based. Particulars: Influenza A virus, MDCK cells.
The next series deals with HCoV 229E. The experiment in a line: Antiviral CPE reduction assay. Format: cell-based. To be noted: Human coronavirus 229E, HEL 299 cells.
In series [12] the test system is Influenza H1N1 (A/Ned/378/05). As to the kind of experiment: Antiviral CPE reduction assay. Format: cell-based. Particulars: Influenza A virus, MDCK cells.
For a further series, the system named is YFV 17D. The experiment in a line: microbe, parasite or virus in culture. The format is cell-based. To be noted: Yellow fever virus, Huh-7, read-out: EC50 YFV 17D Huh7.
Series [13] concerns PC3 prostate carcinoma cells. The experiment in a line: In vitro antiproliferative activity, MTT assay. The format is cell-based. Particulars: Homo sapiens, 72 h. The procedure, abridged:
as §4

Series [14] relates to HeLa cervical carcinoma cells. The experiment in a line: In vitro antiproliferative activity, MTT assay. The format is cell-based. Particulars: Homo sapiens, 72 h. The procedure, abridged: as §4
The subject of series [15] is SW620 colon carcinoma cells. The experiment in a line: In vitro antiproliferative activity, MTT assay. Format: cell-based. To be noted: Homo sapiens, SW-620, 72 h. The procedure, abridged:
as §4

Another series deals with HCoV NL63. As to the kind of experiment: Antiviral CPE reduction assay. To be noted: Human coronavirus NL63, Huh-7, Huh7 cells. Format: cell-based.
The subject of series [16] is Capan-1 pancreatic adenocarcinoma cells. As to the kind of experiment: In vitro antiproliferative activity, MTS proliferation assay. Format: cell-based. To be noted: Homo sapiens, 72 h. Summed up: (§5)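 Cells grown in media with 10% FBS were incubated 72 h with compounds, then viability was read with MTS reagent. Compounds were tested in two independent experiments.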
The subject of series [17] is HL-60 acute myeloid leukemia cells. The description is as above. To be noted: Homo sapiens, 72 h. Format: cell-based. Summed up: as §5
Series [18] concerns DND-41 acute lymphoblastic leukemia cells. Described as above. The format is cell-based. Particulars: Homo sapiens, DND41, 72 h. Summed up: as §5
A short description of series [19]: in vitro.
In series [20] the test system is panel of cancer cell lines (LN-229, Capan-1, HCT-116, NCI-H460, DND-41, HL-60, K-562, Z-138). The experiment in a line: In vitro antiproliferative activity, whole panel of Table 1 (MTS). The format is cell-based. Particulars: Homo sapiens, range over eight cell lines, 72 h, read-out: IC50 values ranging over the panel of cancer cell lines of Table 1.
Excerpt: as §2, §3

Series [21] in a line: Cytotoxicity in virus host cell line, MTS assay. To be noted: dog.

For the molecule `N#Cc1ccc(-c2nc3ncc(Br)cc3[nH]2)cc1` [Compound 8, 4-(6-Bromo-1H-imidazo[4,5-b]pyridin-2-yl)benzonitrile], the melting point (in general, the temperature, or range, at which the solid turns liquid) was above 300 °C. Also, the concentration giving a half-maximal response (EC50) – broadly, the concentration that produces a half-maximal response – in the series with HSV-1 KOS is above 100 µM. Besides, the IC50 (in general, the concentration that inhibits the measured activity by half) in series [1] was above 100 µM. The IC50 in [2] was above 100 µM. Further, the IC50 in series [3] was above 100 µM. Also, the IC50 in series [4] is above 100 µM. In addition, in the series with Sindbis, the EC50 is above 100 µM. The CC50 in “in vitro [5]” was above 100 µM. In the series with Zika mr766, this molecule registered an EC50 above 100 µM. Moreover, the MIC with E. coli Efflux Del was above 64 µM. In series [6], the half-maximal effective concentration (EC50) was determined as 56.7 ± 10.2 µM. Besides, in series [7], the IC50 was 1.8 to 3.2 µM. In addition, in the series on RSV A Long, the EC50 is above 100 µM. Further, the CC50 in “in vitro [8]” is above 100 µM. The same molecule had an IC50 in series [9] (Homo sapiens, Z-138, 72 h) above 100 µM. For the same molecule, in “in vitro [10]”, the CC50 was above 100 µM. In the series on HCoV OC43, this molecule yielded an EC50 above 100 µM. This molecule displayed an MIC against S. Pneumoniae ATCC 49619 above 64 µM. Also, the MIC in the series with E. coli ATCC 25922 is above 64 µM. The MIC in the series with S. aureus ATCC 29213 was above 64 µM. In addition, in series [11], the concentration for a half-maximal effect (EC50) stood at 35.9 ± 12.4 µM. This molecule also showed a concentration giving a half-maximal response (EC50) in the series with HCoV 229E above 100 µM. In [12], this molecule had an EC50 of 72.4 ± 8 µM. Moreover, in the series on YFV 17D, the EC50 is above 100 µM. In addition, 3.2 ± 0.7 µM corresponded to half-maximal inhibition in series [13] (IC50). In series [14], this molecule returned an IC50 of 1.8 ± 0.02 µM. The IC50 in series [15] was found to be 2 ± 0.2 µM. In the series on HCoV NL63, this molecule had a concentration for a half-maximal effect (EC50) above 100 µM. Also, the half-maximal inhibitory concentration (IC50) in [16] is above 100 µM. Also, the IC50 in [17] is above 100 µM. Also, the IC50 in [18] was above 100 µM.
Molecule `CC(C)NC(=N)c1ccc(-c2nc3ncccc3[nH]2)cc1.Cl` [Compound 13, 4-(1H-Imidazo[4,5-b]pyridin-2-yl)-N-isopropylbenzimidamide Hydrochloride] gave a melting point of 293 to 295 °C. In addition, the IC50 in series [1] was above 100 µM. The same molecule showed an IC50 in series [2] above 100 µM. The molecule further registered an IC50 in series [3] above 100 µM. The same molecule returned a 50% inhibitory concentration (IC50) in [4] above 100 µM. In the series “in vitro [5]”, the CC50 is above 100 µM. The MIC in the series with E. coli Efflux Del was above 64 µM. For the same molecule, in the series “in vitro [19]”, the CC50 is above 30 µM. In addition, the CC50 in “in vitro [8]” is above 100 µM. Also, the half-inhibitory concentration (IC50) in series [9] (Homo sapiens, Z-138, 72 h) is above 100 µM. The same molecule displayed a CC50 in “in vitro [10]” of 81.1 ± 26.8 µM. In the series with S. Pneumoniae ATCC 49619, this molecule came in with an MIC above 64 µM. Besides, in the series on E. coli ATCC 25922, the MIC was above 64 µM. Also, in the series on S. aureus ATCC 29213, the MIC is above 64 µM. Moreover, the IC50 in [13] was above 100 µM. This molecule also returned an IC50 in series [14] above 100 µM. The IC50 in [15] was above 100 µM. This molecule registered an IC50 in [16] above 100 µM. This molecule also had an IC50 in series [17] above 100 µM. For the same molecule, in [18], the IC50 was above 100 µM.
Take `Brc1cnc2nc(-c3ccc(C4=NCCN4)cc3)[nH]c2c1.Cl` [Compound 14, 6-Bromo-2-(4-(4,5-dihydro-1H-imidazol-2-yl)phenyl)-1H-imidazo[4,5-b]pyridine Hydrochloride]: the melting point is above 300 °C. The half-inhibitory concentration (IC50) in [20] fell in the range of 8 to 49.7 µM. Further, the IC50 in series [1] turned out to be 13 ± 7.6 µM. Further, half-maximal inhibition in series [2] (IC50) was put at 13.6 ± 2.8 µM. Further, the IC50 in [3] worked out at 49.7 ± 3.1 µM. The molecule further registered an IC50 in series [4] of 8 ± 1.8 µM. For the same molecule, the MIC with E. coli Efflux Del was 32 µM. Moreover, the CC50 in the series “in vitro [8]” stood at 33.9 ± 0.1 µM. The molecule also returned a half-inhibitory concentration (IC50) in series [9] (72 h) of 8.5 ± 2 µM. Further, the concentration for half-maximal inhibition (IC50) in series [9] (Homo sapiens, Z-138, 72 h) came out at 8.4 µM. The same molecule came in with an MIC against S. Pneumoniae ATCC 49619 above 64 µM. The molecule further gave an MIC against E. coli ATCC 25922 above 64 µM. In the series on S. aureus ATCC 29213, the MIC was above 64 µM. Further, in [13], inhibition was half-maximal at 1.5 ± 0.5 µM (IC50). Moreover, in [14], inhibition was half-maximal at 4.3 ± 2.6 µM (IC50). Also, 0.7 ± 0.3 µM corresponded to half-maximal inhibition in series [15] (IC50). The concentration for half-maximal inhibition (IC50) in [16] is 9.4 ± 0.4 µM. For the same molecule, the IC50 in series [17] came out at 9.5 ± 1.3 µM. This molecule also displayed an IC50 in [18] of 10.8 ± 0.4 µM.
Consider `CC(N)C12CC3CC(CC(C3)C1)C2` (centres unmarked) [Rimantadine, rimantadine, reference compound], for which the CC50 in series [21] was above 100 µM. For the same molecule, the EC50 was above 100 µM in [6], 0.05 ± 0.05 µM in series [11] and 4.4 ± 4.2 µM in series [12].
